Entries after “also recorded” stand apart in the source; their conditions may differ. Where two headings read alike, the source gives them in different places.
What was measured:
[1] = tested on: MDA 468; experiment: MTT assay, 3 day exposure, MDA 468; format: cell-based; details: Homo sapiens, MDA 468 (breast), read-out: GI50 values in cell lines, MDA 468
Experimental: (§1) A range of compounds were evaluated in MTT assays following 3 day exposure against a panel of two human breast cancer cell lines MCF-7 (ER+) and MDA 468 (ER−), and two colon cancer cell lines KM12 and HCC 2998. In general the breast cell lines were more sensitive to the agents and the MDA 468 line the most sensitive of the four (Table 2). The benchmark active compound was 5-fluoro-2-(3,4-dimethoxyphenyl)benzothiazole (1) with GI50 values<0.1 nM against the two breast cell lines. […] The most interesting series of compounds were those combining a 5-fluoro group with two oxygenated substituents in the 3′,4′-positions where minor, seemingly conservative, structural changes were associated with a dramatic variations in activity (when compared to 1). […] In summary, this in vitro screen led to the identification of the fluorinated 2-(3,4-dimethoxyphenyl)benzothiazole structure as a novel antitumor pharmacophore with the 5-fluoro analogue (1) astride a pinnacle of activity.
(§2) The assays/methods used to generate the results referred to herein are well known to those skilled in the art and therefore it has not been necessary to describe them in detail.

[2] = tested on: NCI in vitro 60 human cancer cell panel; experiment: NCI in vitro 60 human cancer cell panel, sulforhodamine B assay; format: cell-based; details: for sensitivity of cancer cell panels / antitumour activity in vitro: NCI mean GI50 graphs, FIGS. 1 and 8 to 12
Experimental: Results from the more extensive NCI in vitro 60 human cancer cell panel^15 corroborated the results (above). The mean GI50 values across the range of compounds (above), including the two series of esters (11-21) are an unremarkable 10-100 μM (data not shown); however, these values disguise significant cell selectivity. […] Full NCI mean GI50 graphs for compounds (1,2,3,4,101,102) are included herein as FIGS. 1 and 8 to 12.
The results shown on FIG. 1 were generated by treating the cells with an active agent for 48 hours, in this case compound 1, before determination of viability by sulforhodamine B assay.

[3] = tested on: MCF-7, MDA 468, KM12 and HCC 2998; experiment: MTT assay, panel of four cell lines, results in words; format: cell-based, human; details: compared to compound 1
Experimental: as §1

[4] = tested on: MCF-7; experiment: MTT assay, 3 day exposure, MCF-7; format: cell-based; details: Homo sapiens, read-out: GI50 values in cell lines, MCF-7
Experimental: as §1, §2

[5] = tested on: KM 12; experiment: MTT assay, 3 day exposure, KM12; format: cell-based, human; details: KM 12 (colon), read-out: GI50 values in cell lines, KM 12
Experimental: as §1, §2

[6] = tested on: HCC 2998; experiment: MTT assay, 3 day exposure, HCC 2998; format: cell-based; details: Homo sapiens, HCC 2998, 72 h, HCC 2998 (colon), MTT, 3 day exposure, triplicate; read-out: GI50 values in cell lines, HCC 2998
Experimental: as §1, §2

[7] = tested on: MCF-7; experiment: Growth inhibition alone or in combination with resveratrol, MCF-7; format: cell-based, human; details: MCF-7 (cyp lal-inducible), resveratrol 51 μM
Experimental: The results shown in FIGS. 3a and 3b were generated using MCF-7 (FIG. 3a) and HCC 2998 (FIG. 3b) cells. The said cells were treated with DF 203 or compound 1, alone or in combination with resveratrol (51 μM) an inhibitor of cyp lal activity. It can be seen that in MCF-7 cells (cyp lal-inducible) the activity of DF 203 was abolished.

[8] = tested on: DNA of MCF-7, MDA 468, KM12 and HCC 2998 cells; experiment: DNA adduct formation; format: cell-based, human; details: MCF-7, MDA 468, KM 12 and HCC 2998 cells; 10 μM, 24 hours
[9] = tested on: MCF-7; details: aminophenyl benzothiazole sensitive cells with inducible cyp lal; Hose et al 2003; cited from earlier work
[10] = tested on: cyp lal; experiment: Induction of cyp lal protein expression by Western Blot; format: cell-based
From the text: These findings have been verified following examination of induction of cyp lal protein expression by Western Blot. The following cell lines were used to represent sensitive models: MCF-7, MDA 468 (breast carcinoma), KM12 and HCC 2998 (colon carcinoma) lines.

[11] = target: T1, cyp lal (Homo sapiens, UniProt P04798); experiment: Inhibition of cyp lal (EROD) activity, de-ethylation of ethoxyresorufin by cyp lal microsomes; format: biochemical
T1 construct: host or cells: microsomes
T1 sequence (P04798 1-512): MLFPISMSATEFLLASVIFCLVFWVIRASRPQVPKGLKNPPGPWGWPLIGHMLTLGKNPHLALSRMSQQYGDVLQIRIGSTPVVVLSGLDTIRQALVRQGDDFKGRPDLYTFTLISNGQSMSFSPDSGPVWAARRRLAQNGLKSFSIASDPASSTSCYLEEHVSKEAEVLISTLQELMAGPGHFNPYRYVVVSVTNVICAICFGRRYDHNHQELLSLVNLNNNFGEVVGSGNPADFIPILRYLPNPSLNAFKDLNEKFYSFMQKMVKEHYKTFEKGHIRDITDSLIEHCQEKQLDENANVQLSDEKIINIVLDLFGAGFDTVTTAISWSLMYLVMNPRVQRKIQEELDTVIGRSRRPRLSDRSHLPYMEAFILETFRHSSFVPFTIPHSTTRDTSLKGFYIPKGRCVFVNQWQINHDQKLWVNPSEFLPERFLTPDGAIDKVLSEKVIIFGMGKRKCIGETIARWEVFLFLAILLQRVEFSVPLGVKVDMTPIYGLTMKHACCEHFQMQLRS
Experimental: Compound 1 inhibits cyp lal (EROD) activity in a dose dependent manner (IC50=8 μM; FIG. 4).
The results shown in FIG. 4 were generated by measuring the de-ethylation of ethoxyresorufin by cyp lal microsomes in the absence and the presence of increasing concentrations of compound 1. DF 203 was used as a positive control.

[12] = tested on: cyp lbl; experiment: Induction of cyp lbl gene transcription; format: cell-based
[13] = tested on: cyp lal; experiment: Induction of cyp lal gene transcription; format: cell-based
Experimental: These cell lines are known to be sensitive to compound 1 and 2-(4-amino-3-methylphenyl)-5-fluorobenzothiazole (102, 5F 203; NSC 703786; WO 95/06469) In cell lines which are sensitive to compound 1 only, cyp lal gene transcription was not induced.
The results shown in FIG. 2 were generated by treating the cells with 1 μM of an active agent for 24 hours before determination of changes in cyp lal gene expression.

[14] = 72 h, MTT, 3 day exposure, triplicate
[15] = MCF7, 72 h, MCF-7 (breast), MTT, 3 day exposure, triplicate
[16] = Homo sapiens, KM12, 72 h, MTT, 3 day exposure, triplicate
[17] = MCF7, MCF-7 (breast), value in nM

| melting point [°C] | GI50 [4, 15] [nM] | GI50 [6] [nM] | GI50 [4, 17] [nM] | SMILES | GI50 [1, 14] [nM] | sensitivity of cancer cell panels / antitumour activity in vitro [2] | growth inhibitory potency in words [3] | GI50 [5, 16] [nM] | GI50 ([1]; value in nM) [nM] | also measured |
| --- | --- | --- | --- | --- | --- | --- | --- | --- | --- | --- |
|  | < 0.1 | > 100000 |  | Cc1cc(-c2nc3ccccc3s2)ccc1N [Compound 101, 2-(4-amino-3-methylphenyl)benzothiazole, reference compound] | < 0.1 | ovarian and breast cancer cells are particularly sensitive |  | > 100000 |  | effect of resveratrol on growth inhibitory activity [7]: block the activity; effect of resveratrol on growth inhibitory activity ([7]; listed as DF 203): abolished |
| 129 | 5 |  | 2.9 | COc1ccc(-c2nc3c(F)cccc3s2)cc1OC [Compound 2, 4-Fluoro-2-(3,4-dimethoxyphenyl)benzothiazole] | 5 | reduced activity against cancer cells when compared to compound 1; also recorded: substantial potent and selective antitumour activity; also recorded: potent (but attenuated compared to 1), activity in the colon and NSCL sub-panels | retained nanomolar growth inhibitory potency against one or more of the cell lines | 850 | 3.4 | DNA adducts formed [8]: One major adduct species; GI50 ([5]; value in nM): 78.4 nM |
|  | < 0.1 | 0.25 | < 0.1 | COc1ccc(-c2nc3cc(F)ccc3s2)cc1OC [Compound 1, 2-(3,4-dimethoxyphenyl)-5-fluorobenzothiazole] | < 0.1 |  |  | 290 | < 0.1 | induction of cyp lal protein ([10]; colon cell lines KM12 and HCC 2998): not induced; induction of cyp lal protein ([10]; lysates of MCF-7 and MDA 468 breast cells): Induction of cyp lal protein was observed; IC50 [11]: 8000 nM; GI50 ([2]; Homo sapiens, colon and NSCL sub-panels, 48 hours, read-out: GI50 values against some cell lines): < 10 nM; induction of cyp lbl gene transcription [12]: can be induced; induction of cyp lbl transcription ([12]; certain compound 1-sensitive colon and lung carcinoma cells): no induction of cyp-lbl transcription; induction of cyp lal gene transcription ([13]; MCF-7, T-47D, TK-10, NC1 and 1460 cells, 1 μM, 24 hours): able to induce cyp lal gene transcription; induction of cyp lal gene transcription ([13]; cell lines which are sensitive to compound 1 only): not induced |

The remaining lines, values behind:

| SMILES | melting point [°C] | GI50 [4, 15] [nM] | GI50 [6] [nM] | GI50 [4, 17] [nM] | GI50 [1, 14] [nM] | sensitivity of cancer cell panels / antitumour activity in vitro [2] | growth inhibitory potency in words [3] | GI50 [5, 16] [nM] | GI50 ([1]; value in nM) [nM] | also measured |
| --- | --- | --- | --- | --- | --- | --- | --- | --- | --- | --- |
| COc1ccc(-c2nc3ccccc3s2)cc1OC [Compound 4, 2-(3,4-Dimethoxyphenyl)benzothiazole] | 141 to 143 |  |  |  | 530 | no cancer cells to be particularly sensitive; also recorded: attenuated pattern of activity | retained sub-micromolar activity against MDA 468 |  |  |  |
| COc1ccc(-c2nc3ccc(F)cc3s2)cc1OC [Compound 3, 6-Fluoro-2-(3,4-dimethoxyphenyl)benzothiazole] | 153 to 155 | 62 | 6210 |  | 5 | reduced activity against cancer cells when compared to compound 1; also recorded: demonstrates antitumour activity in vitro; also recorded: potent (but attenuated compared to 1), activity in the colon and NSCL sub-panels | retained nanomolar growth inhibitory potency against one or more of the cell lines | 24100 |  |  |
| Cc1cc(-c2nc3cc(F)ccc3s2)ccc1N [Compound 102, 2-(4-amino-3-methylphenyl)-5-fluorobenzothiazole, reference compound] |  | < 0.1 | > 100000 |  | < 0.1 | non-small cell lung, ovarian, renal and breast cancel cells to be particularly sensitive |  | > 100000 |  | effect of resveratrol on activity [9]: block the activity |

Source: patent US7384966B2, “2-arylbenzothiazole derivatives” (Pharminxo Limited, priority 2004, dated 2008)
